The values below come from patent US20260250290A1 (BRISTOL-MYERS SQUIBB COMPANY, priority 2023, published 2026).

This test concerns the target T1, full length SGK1 (Homo sapiens, UniProt O00141).
T1 construct: 125 μM full length SGK1 (Life Technologies Part #PR7358A); purchased Life Technologies PR7358A
T1 sequence (O00141 1-431): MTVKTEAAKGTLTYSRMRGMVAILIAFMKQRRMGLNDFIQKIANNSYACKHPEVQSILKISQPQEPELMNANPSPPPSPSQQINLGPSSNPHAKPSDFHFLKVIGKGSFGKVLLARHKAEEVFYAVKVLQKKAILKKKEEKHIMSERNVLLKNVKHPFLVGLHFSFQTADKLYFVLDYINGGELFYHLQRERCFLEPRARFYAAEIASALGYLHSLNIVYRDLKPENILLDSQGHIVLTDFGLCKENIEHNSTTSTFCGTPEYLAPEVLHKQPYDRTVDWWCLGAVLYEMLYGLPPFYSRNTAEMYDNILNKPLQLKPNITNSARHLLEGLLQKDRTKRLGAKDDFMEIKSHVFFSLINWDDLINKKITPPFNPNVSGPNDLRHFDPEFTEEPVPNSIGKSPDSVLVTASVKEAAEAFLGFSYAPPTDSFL
In words: SGK1 inhibition Assay A (Caliper LabChip electrophoretic separation of fluorescent peptide substrate and phosphorylated product). Type of test: biochemical. The conditions noted are these: Assay A; 20 μM ATP, 40 min incubation; read-out: SGK1 IC50.

One may read the IC50 as the midpoint of a concentration-inhibition curve. Turning to `Nc1ncnn2c(C3=CCN(C(=O)c4ccno4)C3)cc(N3CCC[C@@H](NC(=O)c4ccc(Cl)s4)C3)c12` [Example 899, (R)-N-(1-(4-amino-7-(1-(isoxazole-5-carbony1)-2,5-dihydro-1H-pyrrol-3-y1)pyrrolo[2,1-f][1,2,4]triazin-5-y1)piperidin-3-y1)-5-chlorothiophene-2-carboxamide], the IC50 amounted to 12 nM.

Regarding `Nc1ncnn2c(C3=CCN(C(=O)c4ccccn4)C3)cc(N3CCC[C@@H](NC(=O)c4ccc(Cl)s4)C3)c12` [Example 900, (R)-N-(1-(4-amino-7-(1-picolinoy1-2,5-dihydro-1H-pyrrol-3-yl)pyrrolo[2,1-f][1,2,4]triazin-5-y1)piperidin-3-y1)-5-chlorothiophene-2-carboxamide], the IC50 was 12 nM.

Regarding `Nc1ncnn2c(C3=CCN(C(=O)[C@@H]4CCCNC4)C3)cc(N3CCC[C@@H](NC(=O)c4ccc(Cl)s4)C3)c12` [Example 901, N-((R)-1-(4-amino-7-(1-((R)-piperidine-3-carbonyl)-2,5-dihydro-1H-pyrrol-3-y1)pyrrolo[2,1-f][1,2,4]triazin-5-y1)piperidin-3-y1)-5-chlorothiophene-2-carboxamide], the half-inhibitory concentration (IC50) amounted to 29 nM.

As to `Nc1ncnn2c(C3=CCN(C(=O)c4ccncc4)C3)cc(N3CCC[C@@H](NC(=O)c4ccc(Cl)s4)C3)c12` [Example 902, (R)-N-(1-(4-amino-7-(1-isonicotinoy1-2,5-dihydro-1H-pyrrol-3-yl)pyrrolo[2,1-f][1,2,4]triazin-5-yl)piperidin-3-y1)-5-chlorothiophene-2-carboxamide], the IC50 is 28 nM.

Take `Nc1ncnn2c(C3=CCN(C(=O)[C@@H]4CCCO4)C3)cc(N3CCC[C@@H](NC(=O)c4ccc(Cl)s4)C3)c12` [Example 903, N-((R)-1-(4-amino-7-(1-((S)-tetrahydrofuran-2-carbony1)-2,5-dihydro-1H-pyrrol-3-yl)pyrrolo[2,1-f][1,2,4]triazin-5-yl)piperidin-3-y1)-5-chlorothiophene-2-carboxamide]: the IC50 was 8 nM.

On to `Nc1ncnn2c(C3=CCN(C(=O)C4CCCS(=O)(=O)C4)C3)cc(N3CCC[C@@H](NC(=O)c4ccc(Cl)s4)C3)c12` (stereo partly drawn) [Example 904, N-((3R)-1-(4-amino-7-(1-(1,1-dioxidotetrahydro-2H-thiopyran-3-carbonyl)-2,5-dihydro-1H-pyrrol-3-yl)pyrrolo[2,1-f][1,2,4]triazin-5-y1)piperidin-3-y1)-5-chlorothiophene-2-carboxamide], for which the 50% inhibitory concentration (IC50) came out at 12 nM.

Turning to `Nc1ncnn2c(C3=CCN(C(=O)C4CCS(=O)(=O)C4)C3)cc(N3CCC[C@@H](NC(=O)c4ccc(Cl)s4)C3)c12` (stereo partly drawn) [Example 905, N-((3R)-1-(4-amino-7-(1-(1,1-dioxidotetrahydrothiophene-3-carbonyl)-2,5-dihydro-1H-pyrrol-3-yl)pyrrolo[2,1-f][1,2,4]triazin-5-yl)piperidin-3-y1)-5-chlorothiophene-2-carboxamide], the IC50 turned out to be 11 nM.

In the case of `CN(C)CCOc1cc(Cl)sc1C(=O)N[C@@H]1CCCN(c2cc(C3=CCN(C(=O)c4cnco4)C3)n3ncnc(N)c23)C1` [Example 907, (R)-N-(1-(4-amino-7-(1-(oxazole-5-carbonyl)-2,5-dihydro-1H-pyrrol-3-yl)pyrrolo[2,1-f][1,2,4]triazin-5-yI)piperidin~3-y1)-5-chloro-3-(2-(dimethylamino)ethoxy)thiophene-2-carboxamide], the half-maximal inhibitory concentration (IC50) turned out to be 4 nM.

In the case of `CN(C)CCOc1cc(Cl)sc1C(=O)N[C@@H]1CCCN(c2cc(C3=CCN(C(=O)c4ncco4)C3)n3ncnc(N)c23)C1` [Example 908, (R)-N-(1-(4-amino-7-(1-(oxazole-2-carbonyl)-2,5-dihydro-1H-pyrrol-3-yl)pyrrolo[2,1-f][1,2,4]triazin-5-yl)piperidin-3-y1)-5-chloro-3-(2-(dimethylamino)ethoxy)thiophene-2-carboxamide], the IC50 is 3 nM.

`CN(C)CCOc1cc(Cl)sc1C(=O)N[C@@H]1CCCN(c2cc(C3=CCN(C(=O)C4CCCOC4)C3)n3ncnc(N)c23)C1` (stereo partly drawn) [Example 909, N-((3R)-1-(4-amino-7-(1-(tetrahydro-2H-pyran-3-carbonyl)-2,5-dihydro-1H-pyrrol-3~yl)pyrrolo[2,1-f][1,2,4]triazin-5-y1)piperidin-3-y1)-5-chloro-3-(2-(dimethylamino)ethoxy)thiophene-2-carboxamide]: the IC50 was determined as 14 nM.

Turning to `CC(=O)N1CC=C(c2cc(OCCN(C)C)c(C(=O)N[C@@H]3CCCN(c4cc(C5=CCN(C(C)=O)C5)n5ncnc(N)c45)C3)s2)C1` [Example 910, (R)-5-(1-acetyl-2,5-dihydro-1H-pyrrol-3-yl)-N-(1-(7-(1-acetyl-2,5-dihydro-1H-pyrrol-3-yl)-4-aminopyrrolo[2,1-f][1,2,4]triazin-5-yl)piperidin-3-yl)-3-(2-(dimethylamino)ethoxy)thiophene-2-carboxamide], the half-inhibitory concentration (IC50) was determined as 59 nM.

For `COC(=O)CN1CC=C(c2cc(N3CCC[C@@H](NC(=O)c4ccc(Cl)s4)C3)c3c(N)ncnn23)C1` [Example 911, methyl (R)-2-(3-(4-amino-5-(3-(5-chlorothiophene-2-carboxamido)piperidin-1-yl)pyrrolo[2,1-f][1,2,4]triazin-7-yl)-2,5-dihydro-1H-pyrrol-1-yl)acetate], the IC50 stood at 70 nM.

For `Nc1ncnn2c(C3=CCN(CC(=O)O)C3)cc(N3CCC[C@@H](NC(=O)c4ccc(Cl)s4)C3)c12` [Example 912, (R)-2-(3-(4-amino-5-(3-(5-chlorothiophene-2-carboxamido)piperidin-1-yl)pyrrolo[2,1-f][1,2,4]triazin-7-yl)-2,5-dihydro-1H-pyrrol-1-yl)acetic acid], the IC50 turned out to be 214 nM.

As to `NC(=O)N1CC=C(c2cc(N3CCC[C@@H](NC(=O)c4ccc(Cl)s4)C3)c3c(N)ncnn23)C1` [Example 913, (R)-3-(4-amino-5-(3-(5-chlorothiophene-2-carboxamido)piperidin-1-yl)pyrrolo[2,1-f][1,2,4]triazin-7-yl)-2,5-dihydro-1H-pyrrole-1-carboxamide], the IC50 worked out at 3 nM.

For the compound `CC(=O)NCC(=O)N1CC=C(c2cc(N3CCC[C@@H](NC(=O)c4ccc(Cl)s4)C3)c3c(N)ncnn23)C1` [Example 914, (R)—N-(1-(7-(1-(acetylglycyl)-2,5-dihydro-1H-pyrrol-3-yl)-4-aminopyrrolo[2,1-f][1,2,4]triazin-5-yl)piperidin-3-yl)-5-chlorothiophene-2-carboxamide], the concentration for half-maximal inhibition (IC50) came out at 3 nM.

In the case of `CC(=O)NCCC(=O)N1CC=C(c2cc(N3CCC[C@@H](NC(=O)c4ccc(Cl)s4)C3)c3c(N)ncnn23)C1` [Example 915, (R)—N-(1-(7-(1-(3-acetamidopropanoyl)-2,5-dihydro-1H-pyrrol-3-yl)-4-aminopyrrolo[2,1-f][1,2,4]triazin-5-yl)piperidin-3-yl)-5-chlorothiophene-2-carboxamide], the half-inhibitory concentration (IC50) worked out at 10 nM.

Turning to `CC(=O)N1CC=C(c2cc(N3CCCC(NC(=O)c4sc(C(F)F)cc4OC4CCN(C(C)C)CC4)C3)c3c(N)ncnn23)C1` (stereo not shown) [compound 442], the IC50 came to 14 nM.

Turning to “(R)-2-(1-(7-(1-acetyl-2,5- dihydro-1H-pyrrol-3-yl)- 4-aminopyrrolo[2,1- f][1,2,4]triazin-5- yl)piperidin-3-yl)-1,1,3,3- tetramethylguanidine [Example 724]”, the IC50 is 15 nM.

In the case of “(R)-3-(4-amino-5-(3-(pyrazine-2-carboxamido)piperidin-1-yl)pyrrolo[2,1-f][1,2,4]triazin-7-yl)-2,5-dihydro-1H-pyrrole-1-carboxylate [Example 540]”, the concentration for half-maximal inhibition (IC50) was 216 nM.

Consider “(R)-N-(1-(4-amino-7-12-(2-hydroxypropan-2-yl)pyrimidin-5-yl)pyrrolo[2,1-f][1,2,4]triazin-5-yl)piperidin-3-yl)-5-(difluoromethyl)thiophene-2-carboxamide [Example 519]”, for which the IC50 came out at 1050 nM.

“(R)-N-(1-(4-amino-7-(1-(2,2-difluoroethyl)-6-oxo-1,6-dihydropyridin-3-yl)pyrrolo[2,1-f][1,2,4]triazin-5-yl)piperidin-3-yl)-5-chlorothiophene-2-carboxamide [Example 520]”: the 50% inhibitory concentration (IC50) came to 3 nM.

For “(R)-N-(1-(4-amino-7-(1-(isoxazole-3-carbonyl)-2,5-dihydro-1H-pyrrol-3-yl)pyrrolo[2,1-f|[1,2,4]triazin-5-yl)piperidin-3-y1)-5-chloro-3-(2-(dimethylamino)ethoxy)thiophene-2-carboxamide [Example 906]”, the IC50 turned out to be 1 nM.

“(R)-N-(1-(4-amino-7-(1-ethyl-1H-pyrazol-5-yl)pyrrolo[2,1-f][1,2,4]triazin-5-yl)piperidin-3-yl)-6-(4-methylpiperazin-1-yl)picolinamide [Example 790]”: the 50% inhibitory concentration (IC50) was found to be 30 nM.

On to “(R)-N-(1-(7-(1-acetyl-2,5-dihydro-1H-pyrrol-3-yl)-4-aminopyrrolo[2,1-f][1,2,4]triazin-5-yl)piperidin-3-yl)-5-chloro-3-(piperidin-4-yloxy)thiophene-2-carboxamide [Example 575]”, for which the concentration for half-maximal inhibition (IC50) was 1 nM.

For the compound “Methyl (R)-3-(4-amino-5-(3- (5-(difluoromethyl)-3- morpholinothiophene-2- carboxamido)piperidin-1- yl)pyrrolo[2,1-f][1,2,4]triazin- 7-yl)-2,5-dihydro-1H-pyrrole- 1-carboxylate [Example 320]”, the IC50 was found to be 25 nM.
